# Assay results from US20080031982A1 (Metaproteomics, LLC, priority 2006, published 2008).
# Key:
# Test in all cases: KinaseProfiler Assay
# [1] = test system: Lyn
# [2] = molecular target: ZIPK (Homo sapiens, UniProt O43293)
# [3] = molecular target: cKit(D816H) (Homo sapiens, UniProt P10721, D816H)
# [4] = molecular target: CDK5/p25 (Homo sapiens, UniProt Q00535)
# [5] = molecular target: MAPK1 (Homo sapiens, UniProt P27361)
# [6] = molecular target: Fer (Homo sapiens, UniProt P16591)
# [7] = molecular target: T1, PhKγ2 (Homo sapiens, UniProt P15735)
# T1 sequence (P15735 1-406): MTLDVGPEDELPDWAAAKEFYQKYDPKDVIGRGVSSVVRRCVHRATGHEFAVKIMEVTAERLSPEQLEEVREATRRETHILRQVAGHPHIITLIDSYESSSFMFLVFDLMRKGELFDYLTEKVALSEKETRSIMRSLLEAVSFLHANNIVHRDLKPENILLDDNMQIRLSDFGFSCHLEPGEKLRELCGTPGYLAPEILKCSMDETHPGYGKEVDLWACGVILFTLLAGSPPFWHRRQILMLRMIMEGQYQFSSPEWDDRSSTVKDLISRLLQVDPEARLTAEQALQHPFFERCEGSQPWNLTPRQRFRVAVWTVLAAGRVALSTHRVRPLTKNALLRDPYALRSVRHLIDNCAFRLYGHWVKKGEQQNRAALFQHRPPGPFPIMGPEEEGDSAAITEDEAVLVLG
# [8] = molecular target: T2, JAK3 (Homo sapiens, UniProt P52333)
# T2 sequence (P52333 1-1124): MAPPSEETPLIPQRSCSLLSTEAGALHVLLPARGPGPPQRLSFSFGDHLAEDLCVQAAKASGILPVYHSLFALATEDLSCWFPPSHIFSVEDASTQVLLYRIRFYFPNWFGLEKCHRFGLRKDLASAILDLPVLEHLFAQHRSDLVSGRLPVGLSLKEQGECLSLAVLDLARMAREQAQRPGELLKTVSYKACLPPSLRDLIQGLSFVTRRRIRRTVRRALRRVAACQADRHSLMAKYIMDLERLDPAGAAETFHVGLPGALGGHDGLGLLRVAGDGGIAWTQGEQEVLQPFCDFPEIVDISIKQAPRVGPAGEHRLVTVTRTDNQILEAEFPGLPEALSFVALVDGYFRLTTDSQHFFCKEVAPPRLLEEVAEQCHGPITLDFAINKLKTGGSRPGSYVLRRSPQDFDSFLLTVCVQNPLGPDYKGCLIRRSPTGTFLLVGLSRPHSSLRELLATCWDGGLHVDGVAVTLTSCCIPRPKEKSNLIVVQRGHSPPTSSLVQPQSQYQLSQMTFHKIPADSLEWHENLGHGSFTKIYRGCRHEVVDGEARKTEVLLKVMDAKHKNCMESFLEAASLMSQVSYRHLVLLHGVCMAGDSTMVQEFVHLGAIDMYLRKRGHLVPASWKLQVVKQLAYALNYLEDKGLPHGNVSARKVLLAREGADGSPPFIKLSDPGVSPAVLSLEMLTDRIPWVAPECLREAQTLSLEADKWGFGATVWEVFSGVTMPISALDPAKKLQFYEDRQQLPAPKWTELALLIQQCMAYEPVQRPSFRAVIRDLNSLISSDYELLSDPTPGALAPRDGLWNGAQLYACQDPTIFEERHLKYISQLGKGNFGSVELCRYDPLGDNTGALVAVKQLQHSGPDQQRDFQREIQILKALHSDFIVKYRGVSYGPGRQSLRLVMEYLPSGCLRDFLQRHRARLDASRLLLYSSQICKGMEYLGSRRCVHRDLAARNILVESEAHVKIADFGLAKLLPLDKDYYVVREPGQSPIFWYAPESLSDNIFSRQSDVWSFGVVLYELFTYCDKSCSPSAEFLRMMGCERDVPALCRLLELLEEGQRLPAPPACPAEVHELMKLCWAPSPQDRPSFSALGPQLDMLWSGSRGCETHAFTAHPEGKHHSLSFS
# [9] = molecular target: Ron (Homo sapiens, UniProt Q04912)
# [10] = molecular target: IGF-1R (Homo sapiens, UniProt P08069)
# [11] = molecular target: T3, TSSK2 (Homo sapiens, UniProt Q96PF2)
# T3 sequence (Q96PF2 1-358): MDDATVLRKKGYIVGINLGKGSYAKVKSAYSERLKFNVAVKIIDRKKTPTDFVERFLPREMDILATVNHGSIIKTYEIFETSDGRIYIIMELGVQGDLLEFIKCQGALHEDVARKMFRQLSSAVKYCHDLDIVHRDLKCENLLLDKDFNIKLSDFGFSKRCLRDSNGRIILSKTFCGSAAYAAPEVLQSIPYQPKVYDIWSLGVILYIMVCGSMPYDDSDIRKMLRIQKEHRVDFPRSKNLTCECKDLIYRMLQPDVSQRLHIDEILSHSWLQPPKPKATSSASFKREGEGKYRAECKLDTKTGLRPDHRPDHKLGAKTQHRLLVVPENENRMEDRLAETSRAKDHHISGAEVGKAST
# cKit(D816H), sequence (P10721 26-976 D816H): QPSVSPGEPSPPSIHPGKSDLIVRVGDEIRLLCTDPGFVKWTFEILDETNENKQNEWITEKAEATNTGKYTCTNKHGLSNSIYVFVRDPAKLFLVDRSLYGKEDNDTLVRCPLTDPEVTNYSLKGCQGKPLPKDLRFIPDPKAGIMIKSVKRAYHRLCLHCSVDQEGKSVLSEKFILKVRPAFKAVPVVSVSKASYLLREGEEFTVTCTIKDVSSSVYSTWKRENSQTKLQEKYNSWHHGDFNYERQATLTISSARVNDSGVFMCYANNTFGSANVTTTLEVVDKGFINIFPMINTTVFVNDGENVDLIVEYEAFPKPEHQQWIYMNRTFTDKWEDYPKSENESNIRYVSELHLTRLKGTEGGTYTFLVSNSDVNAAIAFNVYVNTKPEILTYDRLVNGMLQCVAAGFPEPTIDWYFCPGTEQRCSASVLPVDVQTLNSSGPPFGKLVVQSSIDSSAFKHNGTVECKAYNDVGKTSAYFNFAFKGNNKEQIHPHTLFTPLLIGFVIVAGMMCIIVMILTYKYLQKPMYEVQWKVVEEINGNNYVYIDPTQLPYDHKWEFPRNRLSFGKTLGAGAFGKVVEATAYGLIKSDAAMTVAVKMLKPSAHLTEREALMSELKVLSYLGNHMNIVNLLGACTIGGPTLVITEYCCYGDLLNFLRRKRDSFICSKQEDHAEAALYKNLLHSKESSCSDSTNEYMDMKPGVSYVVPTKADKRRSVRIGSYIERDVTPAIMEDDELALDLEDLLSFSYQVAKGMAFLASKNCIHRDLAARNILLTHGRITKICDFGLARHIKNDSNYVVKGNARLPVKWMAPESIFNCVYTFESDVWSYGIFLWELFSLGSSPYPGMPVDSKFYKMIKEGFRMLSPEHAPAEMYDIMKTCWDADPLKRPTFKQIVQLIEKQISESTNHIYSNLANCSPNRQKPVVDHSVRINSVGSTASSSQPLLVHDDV
# MAPK1, sequence (P27361 whole entry): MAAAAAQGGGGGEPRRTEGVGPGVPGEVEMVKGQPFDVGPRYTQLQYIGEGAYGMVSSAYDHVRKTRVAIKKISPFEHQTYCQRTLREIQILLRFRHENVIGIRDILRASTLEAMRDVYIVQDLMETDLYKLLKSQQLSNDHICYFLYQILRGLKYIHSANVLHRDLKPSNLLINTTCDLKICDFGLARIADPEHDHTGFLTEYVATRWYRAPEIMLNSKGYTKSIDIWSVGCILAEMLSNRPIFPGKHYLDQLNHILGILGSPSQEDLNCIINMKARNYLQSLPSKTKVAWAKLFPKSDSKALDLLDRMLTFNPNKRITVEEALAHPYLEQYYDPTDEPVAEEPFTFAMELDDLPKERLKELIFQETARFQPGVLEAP
# Fer, sequence (P16591 whole entry): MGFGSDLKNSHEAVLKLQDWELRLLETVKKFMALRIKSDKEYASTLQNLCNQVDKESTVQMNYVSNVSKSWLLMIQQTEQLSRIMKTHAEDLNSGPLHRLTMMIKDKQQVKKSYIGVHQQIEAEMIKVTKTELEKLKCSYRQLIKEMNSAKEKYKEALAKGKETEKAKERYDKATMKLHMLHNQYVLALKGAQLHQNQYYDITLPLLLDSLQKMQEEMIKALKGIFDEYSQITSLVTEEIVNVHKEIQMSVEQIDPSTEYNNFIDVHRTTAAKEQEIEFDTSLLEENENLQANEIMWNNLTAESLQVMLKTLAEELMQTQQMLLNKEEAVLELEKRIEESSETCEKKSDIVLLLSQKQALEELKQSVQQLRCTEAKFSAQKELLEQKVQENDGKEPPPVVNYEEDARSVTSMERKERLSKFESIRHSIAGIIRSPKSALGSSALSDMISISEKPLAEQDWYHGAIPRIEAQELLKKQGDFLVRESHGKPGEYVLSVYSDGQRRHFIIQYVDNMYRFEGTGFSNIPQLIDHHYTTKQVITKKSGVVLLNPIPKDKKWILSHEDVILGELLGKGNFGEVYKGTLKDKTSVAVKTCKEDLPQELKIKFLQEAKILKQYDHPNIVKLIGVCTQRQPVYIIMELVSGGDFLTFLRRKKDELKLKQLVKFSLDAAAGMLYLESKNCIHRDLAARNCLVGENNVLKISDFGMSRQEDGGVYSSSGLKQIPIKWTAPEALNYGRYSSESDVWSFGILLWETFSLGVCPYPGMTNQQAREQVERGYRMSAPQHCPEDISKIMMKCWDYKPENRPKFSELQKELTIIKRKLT
# IGF-1R, sequence (P08069 31-1367): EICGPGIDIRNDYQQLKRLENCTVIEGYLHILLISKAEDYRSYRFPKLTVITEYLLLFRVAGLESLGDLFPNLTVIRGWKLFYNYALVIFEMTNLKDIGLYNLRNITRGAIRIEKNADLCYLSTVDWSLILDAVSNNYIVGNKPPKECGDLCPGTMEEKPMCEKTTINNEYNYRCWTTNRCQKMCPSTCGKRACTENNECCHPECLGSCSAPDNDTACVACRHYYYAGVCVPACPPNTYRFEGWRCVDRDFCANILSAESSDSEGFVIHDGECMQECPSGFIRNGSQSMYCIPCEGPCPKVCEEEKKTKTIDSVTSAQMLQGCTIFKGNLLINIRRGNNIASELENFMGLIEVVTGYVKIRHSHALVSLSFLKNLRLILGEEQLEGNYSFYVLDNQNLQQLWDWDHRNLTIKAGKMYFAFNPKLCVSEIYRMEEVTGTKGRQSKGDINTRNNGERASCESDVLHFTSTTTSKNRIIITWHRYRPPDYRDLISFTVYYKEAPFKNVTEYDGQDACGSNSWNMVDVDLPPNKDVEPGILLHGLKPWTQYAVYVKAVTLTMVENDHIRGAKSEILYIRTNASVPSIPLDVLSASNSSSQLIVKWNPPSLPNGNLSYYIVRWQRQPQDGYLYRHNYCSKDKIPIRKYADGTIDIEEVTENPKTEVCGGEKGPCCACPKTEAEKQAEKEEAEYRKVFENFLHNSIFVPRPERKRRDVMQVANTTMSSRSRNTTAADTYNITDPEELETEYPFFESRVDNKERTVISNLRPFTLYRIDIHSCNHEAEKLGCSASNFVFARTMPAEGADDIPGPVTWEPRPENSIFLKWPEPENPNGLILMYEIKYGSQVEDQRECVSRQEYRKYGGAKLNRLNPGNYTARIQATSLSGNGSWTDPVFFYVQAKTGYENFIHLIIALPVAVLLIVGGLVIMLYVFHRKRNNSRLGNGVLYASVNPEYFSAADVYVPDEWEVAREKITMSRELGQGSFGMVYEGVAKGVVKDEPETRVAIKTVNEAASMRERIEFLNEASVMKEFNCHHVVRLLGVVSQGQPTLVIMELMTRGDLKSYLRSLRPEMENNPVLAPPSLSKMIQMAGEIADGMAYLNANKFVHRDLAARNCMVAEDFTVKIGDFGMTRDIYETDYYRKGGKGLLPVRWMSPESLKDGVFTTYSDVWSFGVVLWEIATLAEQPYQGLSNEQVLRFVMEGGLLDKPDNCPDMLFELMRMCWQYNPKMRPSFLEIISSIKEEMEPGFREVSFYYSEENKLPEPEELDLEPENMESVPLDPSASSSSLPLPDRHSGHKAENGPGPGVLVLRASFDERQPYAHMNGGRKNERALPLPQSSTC
# ZIPK, sequence (O43293 whole entry): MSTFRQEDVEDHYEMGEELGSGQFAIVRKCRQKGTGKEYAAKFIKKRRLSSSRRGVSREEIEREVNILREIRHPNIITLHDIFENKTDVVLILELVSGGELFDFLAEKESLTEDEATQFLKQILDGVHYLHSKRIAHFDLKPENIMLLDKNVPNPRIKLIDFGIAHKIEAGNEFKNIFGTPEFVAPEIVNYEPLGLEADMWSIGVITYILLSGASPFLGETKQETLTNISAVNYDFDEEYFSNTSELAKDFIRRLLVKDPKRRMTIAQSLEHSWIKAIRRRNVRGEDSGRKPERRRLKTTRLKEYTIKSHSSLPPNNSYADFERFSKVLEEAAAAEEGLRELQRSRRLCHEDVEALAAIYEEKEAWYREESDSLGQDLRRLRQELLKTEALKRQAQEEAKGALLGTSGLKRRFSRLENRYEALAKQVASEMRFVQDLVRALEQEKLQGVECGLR
# CDK5/p25, sequence (Q00535 whole entry): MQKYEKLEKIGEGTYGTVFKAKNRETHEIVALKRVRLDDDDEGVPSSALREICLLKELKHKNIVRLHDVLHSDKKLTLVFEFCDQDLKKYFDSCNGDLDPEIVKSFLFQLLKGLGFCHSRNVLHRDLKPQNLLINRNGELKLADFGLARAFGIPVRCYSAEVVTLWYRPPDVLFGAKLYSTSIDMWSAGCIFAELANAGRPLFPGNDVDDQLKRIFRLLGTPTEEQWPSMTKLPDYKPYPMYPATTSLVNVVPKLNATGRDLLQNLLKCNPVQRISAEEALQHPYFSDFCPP
# CDK5/p25, sequence (Q15078 99-307 partner limits assumed): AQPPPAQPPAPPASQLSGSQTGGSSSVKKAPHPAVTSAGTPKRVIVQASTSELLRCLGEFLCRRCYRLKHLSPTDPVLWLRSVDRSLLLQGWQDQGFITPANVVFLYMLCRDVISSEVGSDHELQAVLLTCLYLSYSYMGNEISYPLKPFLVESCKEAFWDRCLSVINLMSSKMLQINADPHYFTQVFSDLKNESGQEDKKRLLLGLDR
structure (smiles),measurement,setting,value
"COc1cc(O)c(CC=C(C)C)c(O)c1C(=O)/C=C/c1ccc(O)cc1 [Xanthohumol, xanthohumol]","Kinase activity, % of Control",[1]; 1 ug/ml,97 % of Control
same,"Kinase activity, % of Control",[1]; 5 ug/ml,40 % of Control
same,"Kinase activity, % of Control",[1]; 25 ug/ml,4 % of Control
same,"Kinase activity, % of Control",[1]; 50 ug/ml,2 % of Control
same,"Kinase activity, % of Control",[2]; 1 ug/ml,115 % of Control
same,"Kinase activity, % of Control",[2]; 5 ug/ml,74 % of Control
same,"Kinase activity, % of Control",[2]; 25 ug/ml,20 % of Control
same,"Kinase activity, % of Control",[2]; 50 ug/ml,70 % of Control
same,"Kinase activity, % of Control",[3]; 1 ug/ml,94 % of Control
same,"Kinase activity, % of Control",[3]; 5 ug/ml,45 % of Control
same,"Kinase activity, % of Control",[3]; 25 ug/ml,14 % of Control
same,"Kinase activity, % of Control",[4]; 25 ug/ml,24 % of Control
same,"Kinase activity, % of Control",[4]; 50 ug/ml,87 % of Control
same,"Kinase activity, % of Control",[5]; 5 ug/ml,64 % of Control
same,"Kinase activity, % of Control",[5]; 25 ug/ml,19 % of Control
same,"Kinase activity, % of Control",[5]; 50 ug/ml,17 % of Control
same,"Kinase activity, % of Control",[6]; 1 ug/ml,55 % of Control
same,"Kinase activity, % of Control",[6]; 5 ug/ml,20 % of Control
same,"Kinase activity, % of Control",[6]; 25 ug/ml,10 % of Control
same,"Kinase activity, % of Control",[6]; 50 ug/ml,1 % of Control
same,"Kinase activity, % of Control",[7]; 1 ug/ml,106 % of Control
same,"Kinase activity, % of Control",[7]; 5 ug/ml,60 % of Control
same,"Kinase activity, % of Control",[7]; 25 ug/ml,11 % of Control
same,"Kinase activity, % of Control",[7]; 50 ug/ml,5 % of Control
same,"Kinase activity, % of Control",[8]; 1 ug/ml,104 % of Control
same,"Kinase activity, % of Control",[8]; 5 ug/ml,84 % of Control
same,"Kinase activity, % of Control",[8]; 25 ug/ml,17 % of Control
same,"Kinase activity, % of Control",[8]; 50 ug/ml,5 % of Control
same,"Kinase activity, % of Control",[9]; 1 ug/ml,135 % of Control
same,"Kinase activity, % of Control",[9]; 5 ug/ml,127 % of Control
same,"Kinase activity, % of Control",[9]; 25 ug/ml,60 % of Control
same,"Kinase activity, % of Control",[9]; 50 ug/ml,69 % of Control
same,"Kinase activity, % of Control",[10]; 1 ug/ml,107 % of Control
same,"Kinase activity, % of Control",[10]; 25 ug/ml,129 % of Control
same,"Kinase activity, % of Control",[10]; 50 ug/ml,139 % of Control
same,"Kinase activity, % of Control",[11]; 1 ug/ml,102 % of Control
same,"Kinase activity, % of Control",[11]; 5 ug/ml,95 % of Control
same,"Kinase activity, % of Control",[11]; 25 ug/ml,61 % of Control
same,"Kinase activity, % of Control",[11]; 50 ug/ml,48 % of Control
